Test results published in publication PMC9638024, “Functional rewiring of G protein-coupled receptor signaling in human labor” (Cell Reports, 2022).

Molecular target: T1, EP2 (prostaglandin E2 receptor EP2) (Homo sapiens, UniProt P43116)
T1 construct: gene PTGER2; FLAG-EP2 stably expressed in HEK 293 cells
Assay: cAMP accumulation dose-response in HEK […] cells stably expressing FLAG-EP2 (agonist)
Type: cell-based

T1 sequence (P43116 whole entry): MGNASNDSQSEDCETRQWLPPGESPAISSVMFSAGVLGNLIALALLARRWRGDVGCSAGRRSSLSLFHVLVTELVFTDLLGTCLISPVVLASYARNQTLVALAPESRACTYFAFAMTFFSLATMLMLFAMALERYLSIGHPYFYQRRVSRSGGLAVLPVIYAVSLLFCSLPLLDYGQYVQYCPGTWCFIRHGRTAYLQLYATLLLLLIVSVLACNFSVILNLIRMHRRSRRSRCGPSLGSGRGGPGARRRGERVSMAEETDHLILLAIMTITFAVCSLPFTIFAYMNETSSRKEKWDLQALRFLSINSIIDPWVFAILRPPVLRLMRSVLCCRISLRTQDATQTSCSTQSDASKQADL

EC50: 2.11 nM
Compound: CC(C)OC(=O)COc1cccc(NC(=O)c2cc(-c3cccc(F)c3)ccc2F)c1 [PGN9856i]
